Reference: patent US8034812B2, “Imidazopyridazine derivative having kinase inhibitory activity and pharmaceutical agent thereof” (Takeda Pharmaceutical Company Limited, priority 2006, dated 2011)

Columns and labels:
[1] = target: T1, PDGFRβ intracellular domain protein (Homo sapiens, UniProt P09619); assay: Determination of platelet-derived growth factor receptor β (PDGFRβ) kinase inhibitory activity (AlphaScreen); type: biochemical
T1 construct: 125 ng/ml of PDGFRβ intracellular domain protein (UPSTATE); purchased UPSTATE
Protocol: (§1) A test compound dissolved in dimethyl sulfoxide (DMSO) was diluted with a buffer (50 mM Tris-HCl (pH 7.5), 5 mM MgCl2, 5 mM MnCl2, 2 mM dithiothreitol, 0.01% Tween-20). To this compound solution (5 μL) was added a buffer (10 μL) containing 125 ng/ml of PDGFRβ intracellular domain protein (UPSTATE) and 250 ng/mL of biotin labeled polypeptide biotinyl-poly-Glu:Tyr (4:1) (CIS bio International). At 5 min after mixing kinase enzyme and the compound and biotin labeled polypeptide, to the obtained mixture was added a buffer (10 μL) containing ATP (25 μM), the mixture was allowed to react at 25° C. for 30 min and the reaction was quenched with 25 μL of a stop solution (100 mM EDTA disodium salt, 62.5 mM HEPES buffer (pH 7.4), 250 mM NaCl, 0.1% bovine serum albumin, 10 μg/mL AlphaScreen assay streptavidin donor beads (Streptavidin Donor Beads: PerkinElmer), 10 μg/mL AlphaScreen assay anti-phosphotyrosine recognition antibody PT-66 binding acceptor beads (Anti-phosphotyrosine (P-Tyr-66) Acceptor beads: PerkinElmer)). The reaction solution was allowed to stand at 25° C. for 16 hrs, and the wells were counted using a plate reader Fusion™ (PerkinElmer). The kinase inhibitory rate (%) of the test compound was calculated by the following formula: Inhibitory rate(%)=(1−(count of test compound=blank)÷(control−blank))×100
(§2) The count of the solution reacted without addition of the compound was used as a “control”, and the count of the solution without the compound and ATP was used as a “blank”.

[2] = tested on: Human umbilical vein-derived vascular endothelial cells (HUVEC); assay: Vascular endothelial cell growth inhibitory test (VEGF-stimulated HUVEC, XTT); type: cell-based; conditions: 120 h, 5 days of culture
Protocol: To be specific, HUVEC was suspended in a vascular endothelial cell medium containing the aforementioned 5% bovine fetal serum and plated on a 96 well flat bottom plate by 50 μL (3000 cells) each well. After culture overnight, various concentrations of the test substance and 120 ng/mL of vascular endothelial growth factor (VEGF) were dissolved in a vascular endothelial cell medium containing 5% bovine fetal serum and added to each well by 50 μL. After 5 days of culture, a XTT reagent (Wako Pure Chemical Industries, Ltd.) was added to each well by 10 μL, and the mixture was reacted in an incubator at 37° C., 5% carbon dioxide for 2-3 hr. The absorbance at 450 nm was measured by a microtiter plate reader and the cell growth inhibitory activity was determined.

[3] = target: T2, VEGFR2 intracellular domain protein (Homo sapiens, UniProt P35968); assay: Determination of vascular endothelial growth factor receptor 2 (VEGFR2) kinase inhibitory activity (AlphaScreen); type: biochemical; conditions: read-out: VEGFR2 kinase inhibitory rate
T2 construct: made in house; host or cells: SF-21 insect cells, recombinant baculovirus BAC-VEGFR2
Protocol: Human vascular endothelial growth factor receptor 2 (hereinafter to be referred to as VEGFR2) gene was cloned by PCR using cDNA Libraries Human Placenta (Clontech) as a template. The primer used for PCR was prepared from base sequence (Genbank Accession AF035121) information of VEGFR2 gene by adding a base sequence encoding flag peptide and a recognition sequence of the restriction enzyme to a base sequence (2671-4374 of Genbank Accession AF035121) encoding the VEGFR2 intracellular domain region, so that the protein contains an N-terminal Flag tag. The primer base sequence is shown below.
SF-21 cells were sown at 1×10^6 cells/mL to Sf-900II SFM medium (1 L, Invitrogen) containing 10% fetal bovine serum (trace), 50 mg/L Gentamicin (Invitrogen) and 0.1% Pluronic F-68 (Invitrogen), and shaking culture was performed using a 2 L volume Erlenmeyer flask at 27° C., 100 rpm. After culturing for 24 hrs, recombinant baculovirus BAC-VEGFR2 (13.4 mL) was added to the mixture, and the mixture was further cultured for 3 days. The culture medium was centrifuged at 2,000 rpm for 5 min to give virus-infected cells. The infected cells were washed with a phosphate buffered saline (Invitrogen), centrifuged under the same conditions, and the cells were preserved at −80° C. The cryopreserved cells were thawed in ice, suspended in buffer A (50 mM Tris buffer (30 mL, pH 7.4) containing 20% glycerol, 0.15 M NaCl) supplemented with Complete Protease Inhibitor (Boehringer), and ruptured 3 times with a Polytron homogenizer (Kinematica) at 20,000 rpm for 30 sec. The ruptured medium was clarified by centrifugation at 40,000 rpm for 30 min and filtered with a 0.45 μm filter. The filtrate was passed through a column packed with Anti-FLAG M2 Affinity Gel (4 mL, Sigma) at a flow rate of about 0.5 mL/min. The column was washed with buffer A, and eluted with buffer A containing 100 μg/mL of FLAG peptide. The eluate was concentrated with Vivaspin 20 (Vivascience) having a molecular weight cut off of 30K. The buffer of this concentrate was exchanged using NAP™ 25 column (Amersham Bioscience) equilibrated with buffer A. The fractions containing intracellular domain protein of VEGFR2 were collected, glycerol was added to the final concentration of 50% and cryopreserved at −80° C.
A test compound dissolved in dimethyl sulfoxide (DMSO) was diluted with a buffer (50 mM Tris-HCl (pH 7.5), 5 mM MgCl2, 5 mM MnCl2, 2 mM dithiothreitol, 0.01% Tween-20). To this compound solution (5 μL) was added a buffer (10 μL) containing 50 ng/mL of VEGFR2 intracellular domain protein and 250 ng/mL of biotin labeled polypeptide biotinyl-poly-Glu:Tyr (4:1) (CIS bio International). To the obtained mixture was added a buffer (10 μL) containing ATP (25 μM), the mixture was allowed to react at 25° C. for 5 min and the reaction was quenched with 25 μL of a stop solution (100 mM EDTA disodium salt, 62.5 mM HEPES buffer (pH 7.4), 250 mM NaCl, 0.1% bovine serum albumin, 10 μg/mL AlphaScreen assay streptavidin donor beads (Streptavidin Donor beads: PerkinElmer), 10 μg/mL AlphaScreen assay anti-phosphotyrosine recognition antibody PY-100 binding acceptor beads (Anti-phosphotyrosine (P-Tyr-100) Acceptor beads: PerkinElmer)). The reaction solution was allowed to stand at 25° C. for 16 hrs, and the wells were counted using a plate reader Fusion™ (PerkinElmer). The kinase inhibitory rate (%) of the test compound was calculated by the following formula: Inhibitory rate(%)=(1−(count of test compound−blank)÷(control−blank))×100

[4] = target: T3, PDGFRα intracellular domain protein (Homo sapiens, UniProt P16234); assay: Determination of platelet-derived growth factor receptor α (PDGFRα) kinase inhibitory activity (AlphaScreen); type: biochemical
T3 construct: 125 ng/ml of PDGFRα intracellular domain protein (UPSTATE); purchased UPSTATE
Protocol: as §1, with “PDGFRα” for “PDGFRβ”, “beads:” for “Beads:”, “compound−blank)÷(control−blank))×100” for “compound=blank)÷(control−blank))×100”
as §2

T1 sequence (P09619 554-1106 limits assumed): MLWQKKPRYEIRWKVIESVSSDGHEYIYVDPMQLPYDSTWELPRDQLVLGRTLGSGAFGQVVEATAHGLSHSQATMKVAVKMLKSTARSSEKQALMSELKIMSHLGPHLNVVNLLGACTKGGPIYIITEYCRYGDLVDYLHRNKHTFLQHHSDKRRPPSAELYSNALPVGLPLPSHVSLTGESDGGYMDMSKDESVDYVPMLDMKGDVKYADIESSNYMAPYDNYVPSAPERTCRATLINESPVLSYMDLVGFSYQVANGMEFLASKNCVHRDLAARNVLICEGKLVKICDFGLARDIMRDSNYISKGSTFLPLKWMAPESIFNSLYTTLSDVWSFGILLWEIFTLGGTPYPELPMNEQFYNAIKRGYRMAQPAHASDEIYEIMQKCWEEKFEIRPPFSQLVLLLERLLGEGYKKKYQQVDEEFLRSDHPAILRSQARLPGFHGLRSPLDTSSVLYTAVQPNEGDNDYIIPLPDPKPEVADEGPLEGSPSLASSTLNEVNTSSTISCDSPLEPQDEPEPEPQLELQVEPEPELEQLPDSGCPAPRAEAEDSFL
T2 sequence (P35968 786-1356 limits assumed): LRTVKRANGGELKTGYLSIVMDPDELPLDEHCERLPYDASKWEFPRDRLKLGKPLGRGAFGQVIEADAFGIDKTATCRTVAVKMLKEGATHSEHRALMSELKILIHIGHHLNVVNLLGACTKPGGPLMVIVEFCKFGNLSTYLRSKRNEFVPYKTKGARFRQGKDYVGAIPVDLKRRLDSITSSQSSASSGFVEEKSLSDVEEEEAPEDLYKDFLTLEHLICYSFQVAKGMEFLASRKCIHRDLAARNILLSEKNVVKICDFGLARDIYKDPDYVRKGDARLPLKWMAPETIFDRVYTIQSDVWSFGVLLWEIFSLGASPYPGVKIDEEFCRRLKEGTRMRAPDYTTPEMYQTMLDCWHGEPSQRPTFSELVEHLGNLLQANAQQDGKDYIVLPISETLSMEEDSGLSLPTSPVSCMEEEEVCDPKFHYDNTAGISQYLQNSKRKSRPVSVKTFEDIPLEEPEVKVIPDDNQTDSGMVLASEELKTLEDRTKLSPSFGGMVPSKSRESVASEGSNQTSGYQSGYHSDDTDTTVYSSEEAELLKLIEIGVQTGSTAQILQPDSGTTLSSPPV
T3 sequence (P16234 550-1089 limits assumed): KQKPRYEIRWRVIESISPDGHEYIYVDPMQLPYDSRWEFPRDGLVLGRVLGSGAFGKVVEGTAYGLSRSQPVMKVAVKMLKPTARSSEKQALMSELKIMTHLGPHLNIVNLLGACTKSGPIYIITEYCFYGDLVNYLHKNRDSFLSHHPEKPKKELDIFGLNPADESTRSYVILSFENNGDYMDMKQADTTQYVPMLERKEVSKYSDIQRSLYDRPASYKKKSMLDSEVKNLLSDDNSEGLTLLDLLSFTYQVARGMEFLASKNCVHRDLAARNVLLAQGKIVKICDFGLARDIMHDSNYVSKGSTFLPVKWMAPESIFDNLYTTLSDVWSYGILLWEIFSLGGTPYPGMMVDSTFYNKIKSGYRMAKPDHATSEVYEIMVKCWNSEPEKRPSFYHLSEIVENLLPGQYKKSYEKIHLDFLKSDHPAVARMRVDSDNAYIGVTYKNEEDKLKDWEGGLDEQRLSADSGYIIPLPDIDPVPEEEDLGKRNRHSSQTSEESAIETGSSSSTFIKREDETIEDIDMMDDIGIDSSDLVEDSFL

IC50 [1] | inhibition at 1 µM [3] | IC50 [4] | Compound | IC50 [2]
≤ 500 nM | ≥ 90% | ≤ 500 nM | CCn1nccc1C(=O)Nc1cc(Oc2ccc3nc(NC(=O)C4CC4)cn3n2)ccc1F [Example 174, N-[5-({2-[(cyclopropylcarbonyl)amino]imidazo[1,2-b]pyridazin-6-yl}oxy)-2-fluorophenyl]-1-ethyl-1H-pyrazole-5-carboxamide] | ≤ 500 nM
≤ 500 nM | ≥ 90% | – | CCNC(=O)Nc1cccc(Oc2ccc3nc(NC(=O)C4CC4)cn3n2)c1 [Example 103, N-[6-(3-{[(ethylamino)carbonyl]amino}phenoxy)imidazo[1,2-b]pyridazin-2-yl]cyclopropanecarboxamide] | ≤ 500 nM
≤ 500 nM | ≥ 90% | – | Cc1nc(C(=O)Nc2cccc(Oc3ccc4nc(NC(=O)C5CC5)cn4n3)c2)c(C)o1 [Example 117, N-[3-({2-[(cyclopropylcarbonyl)amino]imidazo[1,2-b]pyridazin-6-yl}oxy)phenyl]-2,5-dimethyl-1,3-oxazole-4-carboxamide] | ≤ 500 nM
≤ 500 nM | ≥ 90% | – | Cc1cc(C(=O)Nc2cccc(Oc3ccc4nc(NC(=O)CN(C)C)cn4n3)c2)n(C)n1 [Example 149, N-[3-({2-[(N,N-dimethylglycyl)amino]imidazo[1,2-b]pyridazin-6-yl}oxy)phenyl]-1,3-dimethyl-1H-pyrazole-5-carboxamide] | ≤ 500 nM
≤ 500 nM | ≥ 90% | ≤ 500 nM | O=C(Nc1cccc(Oc2ccc3nc(NC(=O)C4CC4)cn3n2)c1)c1ccccc1 [Example 165, N-[3-({2-[(cyclopropylcarbonyl)amino]imidazo[1,2-b]pyridazin-6-yl}oxy)phenyl]benzamide] | ≤ 500 nM
≤ 500 nM | ≥ 90% | ≤ 500 nM | CCn1cc(C(=O)Nc2cc(Oc3ccc4nc(NC(=O)C5CC5)cn4n3)ccc2F)c(C)n1 [Example 161, N-[5-({2-[(cyclopropylcarbonyl)amino]imidazo[1,2-b]pyridazin-6-yl}oxy)-2-fluorophenyl]-1-ethyl-3-methyl-1H-pyrazole-4-carboxamide] | ≤ 500 nM
– | ≥ 90% | ≤ 500 nM | O=C(Nc1cn2nc(Oc3ccc4cc[nH]c4c3)ccc2n1)C1CC1 [Example 95, N-[6-(1H-indol-6-yloxy)imidazo[1,2-b]pyridazin-2-yl]cyclopropanecarboxamide] | ≤ 500 nM
– | ≥ 90% | – | Cc1cc(C(=O)Nc2cc(Oc3ccc4nc(NC(=O)C5CC5)cn4n3)ccc2C)n(C)n1 [Example 111, N-[5-({2-[(cyclopropylcarbonyl)amino]imidazo[1,2-b]pyridazin-6-yl}oxy)-2-methylphenyl]-1,3-dimethyl-1H-pyrazole-5-carboxamide] | ≤ 500 nM
≤ 500 nM | ≥ 90% | – | Cc1cc(C(=O)Nc2cccc(Sc3ccc4nc(NC(=O)C5CC5)cn4n3)c2)n(C)n1 [Example 150, N-[3-({2-[(cyclopropylcarbonyl)amino]imidazo[1,2-b]pyridazin-6-yl}sulfanyl)phenyl]-1,3-dimethyl-1H-pyrazole-5-carboxamide] | ≤ 500 nM
– | ≥ 90% | – | Cc1ccc(Oc2ccc3nc(NC(=O)C4CC4)cn3n2)cc1N [Example 108, N-[6-(3-amino-4-methylphenoxy)imidazo[1,2-b]pyridazin-2-yl]cyclopropanecarboxamide] | ≤ 500 nM
≤ 500 nM | ≥ 90% | – | CCn1cc(C(=O)Nc2cc(Oc3ccc4nc(NC(=O)C5CC5)cn4n3)ccc2Cl)c(C)n1 [Example 254, N-[2-chloro-5-({2-[(cyclopropylcarbonyl)amino]imidazo[1,2-b]pyridazin-6-yl}oxy)phenyl]-1-ethyl-3-methyl-1H-pyrazole-4-carboxamide] | ≤ 500 nM
≤ 500 nM | ≥ 90% | – | COCC(=O)Nc1cn2nc(Oc3cccc(NC(=O)c4cc(C)nn4C)c3)ccc2n1 [Example 127, N-[3-({2-[(methoxyacetyl)amino]imidazo[1,2-b]pyridazin-6-yl}oxy)phenyl]-1,3-dimethyl-1H-pyrazole-5-carboxamide] | ≤ 500 nM
≤ 500 nM | ≥ 90% | – | Cc1nc(C)c(C(=O)Nc2cccc(Oc3ccc4nc(NC(=O)C5CC5)cn4n3)c2)s1 [Example 114, N-[3-({2-[(cyclopropylcarbonyl)amino]imidazo[1,2-b]pyridazin-6-yl}oxy)phenyl]-2,4-dimethyl-1,3-thiazole-5-carboxamide] | ≤ 500 nM
